The values below come from ChEMBL document CHEMBL1141104, “Glycodiversification for the optimization of the kanamycin class aminoglycosides” (2005).

Structures are written as SMILES. ≈ marks a conversion by molar mass, not a printed value. Calls of active or inactive are those of the source. No cut-off for these calls is given here.

One test concerns Escherichia coli. The test can be described thus: Minimum inhibitory concentration against Escherichia coli (ATCC 25922); inactive. Type of test: functional, organism-based.
Conditions: not given
Turning to `CC1OC(OC2C(N)CC(N)C(OC3OC(CN)C(O)C(O)C3N)C2O)C(O)C(O)C1O` (stereo in doubt; 23), the MIC (as a rule, the least concentration at which growth counts as inhibited) is “inactive”.

Consider `CC1CC(O)C(O)C(OC2C(N)CC(N)C(OC3OC(CN)C(O)C(O)C3N)C2O)O1` (centres undefined), for which the MIC result was “inactive”.

Turning to `CC1OC(OC2C(N)CC(N)C(OC3OC(CN)C(O)C(O)C3N)C2O)C(O)C(O)C1O` (stereo in doubt) [listing 1 of 2 here], the MIC result was “inactive”.

The subject of another test is Staphylococcus aureus. The test can be described thus: Minimum inhibitory concentration against Staphylococcus aureus (ATCC 25923); inactive. Type of test: functional, organism-based.
Conditions: not given
In the case of `CC1OC(OC2C(N)CC(N)C(OC3OC(CN)C(O)C(O)C3N)C2O)C(O)C(O)C1O` (stereo in doubt; 23), the MIC result was “inactive”.

In the case of `CC1CC(O)C(O)C(OC2C(N)CC(N)C(OC3OC(CN)C(O)C(O)C3N)C2O)O1` (centres undefined), the MIC result was “inactive”.

Turning to `CC1OC(OC2C(N)CC(N)C(OC3OC(CN)C(O)C(O)C3N)C2O)C(O)C(O)C1O` (stereo in doubt) [listing 1 of 2 here], the MIC entry is “inactive”.

In a further test the test system is Staphylococcus aureus. The test can be described thus: Minimum inhibitory concentration against Staphylococcus aureus (ATCC 25923). Type of test: functional.
Conditions: not given
`NC[C@H]1O[C@H](O[C@H]2[C@H](O)[C@@H](O[C@H]3O[C@H](CO)[C@@H](O)[C@H](N)[C@H]3O)[C@H](N)C[C@@H]2N)[C@H](N)[C@@H](O)[C@@H]1O` [BEKANAMYCIN] gave an MIC of 1 µg/mL (≈ 2.07 µM).

Still in this test, the particulars now being: Staphylococcus aureus, ATCC 25923; read-out: MIC.
Consider `CC1OC(OC2C(N)CC(N)C(OC3OC(CN)C(O)C(O)C3N)C2O)C(O)C(O)C1OC[C@H](O)CN` (some centres undefined), for which the MIC was 4 µg/mL (≈ 7.39 µM).

On to `CC1OC(OC2C(N)CC(N)C(OC3OC(CN)C(O)C(O)C3N)C2O)C(O)C(O)C1OCCCN` (centres undefined), for which the MIC stood at 4 µg/mL (≈ 7.61 µM).

Take `CC1OC(OC2C(N)CC(N)C(OC3OC(CN)C(O)C(O)C3N)C2O)C(O)C(O)C1N` (centres undefined): the MIC came out at 2 µg/mL (≈ 4.28 µM).

On to `NC[C@H]1O[C@H](O[C@H]2[C@H](O)[C@@H](O[C@H]3O[C@H](CO)[C@@H](O)[C@H](N)[C@H]3O)[C@H](N)C[C@@H]2N)[C@H](N)[C@@H](O)[C@@H]1O` [BEKANAMYCIN], for which the MIC amounted to 2 µg/mL (≈ 4.14 µM).

For `CC1OC(OC2C(N)CC(N)C(OC3OC(CN)C(O)C(O)C3N)C2O)C(O)C(O)C1OC[C@@H](O)CN` (some centres undefined), the MIC turned out to be 4 µg/mL (≈ 7.39 µM).

For `CC1OC(OC2C(N)CC(N)C(OC3OC(CN)C(O)C(O)C3N)C2O)C(O)C(O)C1OC[C@H](N)CN` (some centres undefined), the MIC worked out at 8 µg/mL (≈ 14.8 µM).

Regarding `CC1OC(OC2C(N)CC(N)C(OC3OC(CN)C(O)C(O)C3N)C2O)C(O)C(N)C1O` (centres undefined), the MIC came to 2 µg/mL (≈ 4.28 µM).

Take `CC1OC(OC2C(N)CC(N)C(OC3OC(CN)C(O)C(O)C3N)C2O)C(O)C(O)C1O` (stereo in doubt) [listing 2 of 2 here]: the minimum inhibitory concentration (MIC) is 16 µg/mL (≈ 34.2 µM).

For the molecule `NCC1OC(OC2C(N)CC(N)C(OC3OCC(O)C(O)C3O)C2O)C(N)C(O)C1O` (centres undefined), the minimum inhibitory concentration (MIC) stood at 64 µg/mL (≈ 141 µM).

As for `NC[C@@H]1O[C@H](O[C@H]2[C@H](O)[C@H](O[C@H]3O[C@H](CO)[C@H](O)[C@@H](O)[C@H]3O)[C@H](N)C[C@H]2N)[C@@H](N)[C@@H](O)[C@@H]1O`, the MIC amounted to 32 µg/mL (≈ 66 µM).

`CC1OC(OC2C(N)CC(N)C(OC3OC(CN)C(O)C(O)C3N)C2O)C(O)C(O)C1OCC(CN)OC[C@H](O)CN` (some centres undefined): the minimum inhibitory concentration (MIC) amounted to 4 µg/mL (≈ 6.51 µM).

As to `CC1OC(OC2C(N)CC(N)C(OC3OC(CN)C(O)C(O)C3N)C2O)C(O)C(O)C1OC[C@@H](N)CN` (some centres undefined), the minimal inhibitory concentration (MIC) came to 8 µg/mL (≈ 14.8 µM).

In the case of `CC1OC(OC2C(N)CC(N)C(OC3OC(CN)C(O)C(O)C3N)C2O)C(O)C(N)C1OCC(O)CN` (centres undefined), the minimal inhibitory concentration (MIC) was 2 µg/mL (≈ 3.7 µM).

Another test concerns Escherichia coli. Put plainly: Minimum inhibitory concentration against Escherichia coli (ATCC 25922). Type of test: functional.
Conditions: not given
The molecule `NC[C@H]1O[C@H](O[C@H]2[C@H](O)[C@@H](O[C@H]3O[C@H](CO)[C@@H](O)[C@H](N)[C@H]3O)[C@H](N)C[C@@H]2N)[C@H](N)[C@@H](O)[C@@H]1O` [BEKANAMYCIN] yielded a minimum inhibitory concentration (MIC) of 4 µg/mL (≈ 8.27 µM).

Still in this test, the particulars now being: Escherichia coli, ATCC 25922; read-out: MIC.
Consider `CC1OC(OC2C(N)CC(N)C(OC3OC(CN)C(O)C(O)C3N)C2O)C(O)C(O)C1OC[C@H](O)CN` (some centres undefined), for which the minimal inhibitory concentration (MIC) is 4 µg/mL (≈ 7.39 µM).

Consider `CC1OC(OC2C(N)CC(N)C(OC3OC(CN)C(O)C(O)C3N)C2O)C(O)C(O)C1OCCCN` (centres undefined), for which the MIC was 4 µg/mL (≈ 7.61 µM).

In the case of `CC1OC(OC2C(N)CC(N)C(OC3OC(CN)C(O)C(O)C3N)C2O)C(O)C(O)C1N` (centres undefined), the MIC was determined as 12 µg/mL (≈ 25.7 µM).

Turning to `NC[C@H]1O[C@H](O[C@H]2[C@H](O)[C@@H](O[C@H]3O[C@H](CO)[C@@H](O)[C@H](N)[C@H]3O)[C@H](N)C[C@@H]2N)[C@H](N)[C@@H](O)[C@@H]1O` [BEKANAMYCIN], the minimal inhibitory concentration (MIC) stood at 2 µg/mL (≈ 4.14 µM).

For the molecule `CC1OC(OC2C(N)CC(N)C(OC3OC(CN)C(O)C(O)C3N)C2O)C(O)C(O)C1OC[C@@H](O)CN` (some centres undefined), the minimum inhibitory concentration (MIC) was 4 µg/mL (≈ 7.39 µM).

With `CC1OC(OC2C(N)CC(N)C(OC3OC(CN)C(O)C(O)C3N)C2O)C(O)C(O)C1OC[C@H](N)CN` (some centres undefined), the MIC turned out to be 8 µg/mL (≈ 14.8 µM).

Regarding `CC1OC(OC2C(N)CC(N)C(OC3OC(CN)C(O)C(O)C3N)C2O)C(O)C(N)C1O` (centres undefined), the minimal inhibitory concentration (MIC) worked out at 2 µg/mL (≈ 4.28 µM).

On to `CC1OC(OC2C(N)CC(N)C(OC3OC(CN)C(O)C(O)C3N)C2O)C(O)C(O)C1O` (stereo in doubt) [listing 2 of 2 here], for which the MIC came out at 32 µg/mL (≈ 68.3 µM).

Turning to `NCC1OC(OC2C(N)CC(N)C(OC3OCC(O)C(O)C3O)C2O)C(N)C(O)C1O` (centres undefined), the MIC amounted to 32 µg/mL (≈ 70.4 µM).

`NC[C@@H]1O[C@H](O[C@H]2[C@H](O)[C@H](O[C@H]3O[C@H](CO)[C@H](O)[C@@H](O)[C@H]3O)[C@H](N)C[C@H]2N)[C@@H](N)[C@@H](O)[C@@H]1O`: the MIC was 32 µg/mL (≈ 66 µM).

For `CC1OC(OC2C(N)CC(N)C(OC3OC(CN)C(O)C(O)C3N)C2O)C(O)C(O)C1OCC(CN)OC[C@H](O)CN` (some centres undefined), the MIC amounted to 8 µg/mL (≈ 13 µM).

`CC1OC(OC2C(N)CC(N)C(OC3OC(CN)C(O)C(O)C3N)C2O)C(O)C(O)C1OC[C@@H](N)CN` (some centres undefined): the minimal inhibitory concentration (MIC) turned out to be 8 µg/mL (≈ 14.8 µM).

As for `CC1OC(OC2C(N)CC(N)C(OC3OC(CN)C(O)C(O)C3N)C2O)C(O)C(N)C1OCC(O)CN` (centres undefined), the MIC is 4 µg/mL (≈ 7.4 µM).
